# Data reported in US20240226059A1, “COMPOSITION FOR INHIBITING ANGIOGENESIS AND ENHANCING THERAPEUTIC EFFECT OF ANTICANCER DRUGS IN CANCER PATIENT” (KANT SCIENCE INC., priority 2020, published 2024).
# Entries after “also recorded” stand apart in the source; their conditions may differ.
# Legend:
# Type in all cases: cell-based
# Breast cancer cells [1] = experiment: Cell viability of breast cancer cells at normal or low glucose; conditions: low-carbohydrate state (glucose 5 nM), in combination with paclitaxel (PTX); FIG. 3
# Experimental: Breast cancer cells were cultured at a normal glucose (GLU) concentration of […] or a low concentration of […], and cell viability was confirmed with and without the treatment of paclitaxel (PTX), which is an anticancer drug, and cariporide (CAR) or curcumin (CUR).
# colorectal cancer cells = experiment: Anticancer drug resistance (GR50 ratio) of colorectal cancer cells at high or low glucose; conditions: low glucose (5 nM), in combination with irinotecan; FIG. 4
# Experimental: Furthermore, colorectal cancer cells were cultured at a high glucose concentration ([…]) or a low glucose concentration ([…]), and it was confirmed by a growth rate 50 ratio (GR50 ratio) while treating irinotecan, which is an anticancer drug, and cariporide in combination whether the cancer cells had anticancer drug resistance.
# Breast cancer cells [2] = experiment: Intracellular acidity (pH) of breast cancer cells at normal or low glucose; conditions: low-carbohydrate state (glucose 5 nM), in combination with paclitaxel (PTX); FIG. 1, FIG. 2
# Experimental: Breast cancer cells were cultured at a normal glucose (GLU) concentration of […] or a low concentration of […], and intracellular acidity was confirmed with or without the treatment of paclitaxel (PTX), which is an anticancer drug, and cariporide (CAR), which is a drug that regulates intracellular acidity.
SMILES,anticancer effect (cell viability) (Breast cancer cells [1]),"anticancer drug resistance (growth rate 50 ratio, GR50 ratio) (colorectal cancer cells)",cell viability (colorectal cancer cells),intracellular acidity (Breast cancer cells [2])
CC(C)c1ccc(C(=O)NC(=N)N)cc1S(C)(=O)=O [cariporide],best anticancer effect,overcome anticancer drug resistance,significantly reduce cell viability,maintained normal pH; also recorded: closest to normal
COc1cc(/C=C/C(=O)CC(=O)/C=C/c2ccc(O)c(OC)c2)ccc1O [curcumin],best anticancer effect,,,same effect as cariporide; also recorded: closest to normal
